Data published in patent US10550117B2, “2-azabicyclo[3.1.0]hexan-3-one derivatives and methods of use” (Genentech, Inc., priority 2016, dated 2020).

Experiments:
[1] = tested on: REL-A (p65) nuclear translocation in HeLa cells; experiment: REL-A HeLa nuclear translocation assay (TNF-α stimulated, high content imaging); format: cell-based; conditions: Homo sapiens, 10 ng/mL TNF-α
Experimental: (§1) (3) A third set of cell assays are used to define the selectivity of NIK inhibitors toward inhibition of classical vs. non-classical NF-kB signaling and rely on quantification of the nuclear translocation of p52 (NF-kB2) and REL-A (p65) using high content cellular imaging. For the p52 (non-classical NF-kB signaling) nuclear translocation assay, HeLa cells are treated with different concentrations of compounds (0.2% DMSO final) in medium containing 10% fetal bovine serum and then stimulated with 100 ng/mL of an anti-lymphotoxin beta receptor antibody (R&D Systems) for 5 hours. In the REL-A nuclear translocation assay, HeLa cells are incubated with compounds (0.2% DMSO final) for 4.5 hours in medium containing 10% fetal bovine serum before stimulating them with 10 ng/mL tumor necrosis factor (TNF)-α (R&D Systems) for 30 minutes. Cells are fixed with 4% paraformaldehyde, permeabilized by adding 0.1% Triton X-100 in phosphate buffered saline, and then are incubated with either 2 μg/mL anti-p52 antibody (Millipore) or 400 ng/mL anti-REL-A (p65) antibody (Santa Cruz Biotechnology). Finally, the cells are incubated with an Alexa488-labeled secondary antibody (Invitrogen) and DRAQ5 DNA stain (Biostatus). Imaging is carried out using an Opera reader (Perkin Elmer) and data are analyzed with the aid of Acapella software (Perkin Elmer). The p52 or REL-A translocation into the nucleus is quantified by the ratio of the nuclear to cytoplasmic signal intensity. […] The test compounds have the corresponding inhibitory values (IC50) for NIK REL-A (p65) and p52 Translocation Assays as set forth in Table B2.

[2] = tested on: p52 (NF-kB2) nuclear translocation in HeLa cells; experiment: p52 HeLa nuclear translocation assay (anti-lymphotoxin beta receptor antibody stimulated); format: cell-based; conditions: Homo sapiens, 100 ng/mL anti-lymphotoxin beta receptor antibody
Experimental: as §1

[3] = molecular target: nuclear factor-kappa B (NF-kB)-inducing kinase (NIK) (Homo sapiens (Human), UniProt Q99558); experiment: NIK enzyme inhibition assay (Transcreener ADP fluorescence polarization); format: biochemical; conditions: for NIK enzyme inhibition, potency in words relative to the other stereoisomers: stereoisomers separated by chiral SFC, qualitative; for Ki: purified NIK 0.5 nM, 10 μM ATP, Morrison equation, read-out: NIK ADP-FP Ki
Experimental: The ability of the nuclear factor-kappa B (NF-kB)-inducing kinase (NIK) to catalyze the hydrolysis of adenosine-5′-triphosphate (ATP) was monitored using the Transcreener ADP (adenosine-5′-diphosphate) assay (BellBrook Labs). […] Reactions were quenched by the addition of 20 mM 2,2′,2″,2′″-(ethane-1,2-diyldinitrilo)tetraacetic acid and 0.01% Brij 35. The tracer bound to the antibody was displaced by the ADP generated during the NIK reaction, which causes a decrease in fluorescence polarization that was measured by laser excitation at 633 nm with a Fluorescence Correlation Spectroscopy Plus reader (Evotec AG). Equilibrium dissociation constant (Ki) values for NIK inhibitors are calculated from plots of activity vs. inhibitor concentration using Morrison's quadratic equation that accounts for the potential of tight binding, and by also applying the conversion factor that accounted for competitive inhibition and the concentration of substrate used in the assay relative to its Michaelis constant (Km).

[4] = Liver microsome stability; format: in vitro ADME; conditions: for HLM CL (human liver microsome clearance): human liver microsomes; for stability in human liver microsomes versus the corresponding pyrrolidinone comparator compound: qualitative comparison
Experimental: Metabolic stability assays in liver microsomes are conducted with pooled female CD-1 mouse, male Sprague-Dawley rat, male beagle dog, male cynomolgus monkey, and mixed male and female human liver microsomal incubations. The general assay conditions are as follows. Incubation mixtures consisted of liver microsomes (0.5 mg of microsomal protein/ml) and the test compound (1.0 μM) with or without NADPH (1.0 mM) in the potassium phosphate buffer (100 mM; pH 7.4) with a final incubation volume of 0.25 ml. Reactions are initiated by the addition of NADPH or buffer and shaken in a water bath open to the air at 37° C. At times 0, 20, 40, and 60 min, aliquots (50 μl) are removed and added to termination mixtures (100 μl) containing acetonitrile and an internal standard. The samples are then centrifuged for 10 min at 2000 g. The supernatant (90 μl) is removed, combined with 180 μl of water, and analyzed by LC-MS/MS.
Metabolic stability of the test compounds were evaluated in human liver microsomes following known protocols described in Halladay, et al. Drug Metabol. Lett. 2007, 1:67-72.

Hepatocyte stability = format: in vitro ADME; conditions: human hepatocytes
Experimental: General. Metabolic stability assays in hepatocytes are conducted using cryopreserved pooled female CD-1 mouse, male Sprague-Dawley rat, male beagle dog, male cynomolgus monkey, and mixed male and female human hepatocytes (CellzDirect). Vials of hepatocytes are thawed rapidly in a water bath set at 37° C. and then are diluted with Dulbecco's modified Eagle's medium (DMEM), pH 7.4. Cells are isolated by centrifugation, pooled, and resuspended in DMEM at 1.0 million viable cells/ml. Membrane integrity of the cells is assessed by trypan blue exclusion. The test compound is dissolved in dimethyl sulfoxide at a final concentration of 10 mM. This test compound stock is diluted further to 2 μM in DMEM (125 μl) before the addition of an equal volume of the 10^6 cells/ml cell suspension. The test compound (final incubation concentration of 1.0 μM with 0.1% dimethyl sulfoxide) and cells (final concentration of 0.5×10^6 cells/ml) are incubated at 37° C. in a 95% air/5% CO2 atmosphere for 3 h. Aliquots (50 μl) are removed at 0, 1, 2, and 3 hours and added to termination mixtures (100 μl) containing acetonitrile and an internal standard. The samples are then centrifuged for 10 min at 2000 g. The supernatant (90 μl) is removed, combined with 180 μl of water, and analyzed by LC-MS/MS.
Metabolic stability of the test compounds were evaluated also in human hepatocytes, following protocols described in Hallifax, et al. Drug Metabol. Disposition, 2005, 33:1852-1858.

Chain of nuclear factor-kappa B (NF-kB)-inducing kinase (NIK) (Q99558 whole entry): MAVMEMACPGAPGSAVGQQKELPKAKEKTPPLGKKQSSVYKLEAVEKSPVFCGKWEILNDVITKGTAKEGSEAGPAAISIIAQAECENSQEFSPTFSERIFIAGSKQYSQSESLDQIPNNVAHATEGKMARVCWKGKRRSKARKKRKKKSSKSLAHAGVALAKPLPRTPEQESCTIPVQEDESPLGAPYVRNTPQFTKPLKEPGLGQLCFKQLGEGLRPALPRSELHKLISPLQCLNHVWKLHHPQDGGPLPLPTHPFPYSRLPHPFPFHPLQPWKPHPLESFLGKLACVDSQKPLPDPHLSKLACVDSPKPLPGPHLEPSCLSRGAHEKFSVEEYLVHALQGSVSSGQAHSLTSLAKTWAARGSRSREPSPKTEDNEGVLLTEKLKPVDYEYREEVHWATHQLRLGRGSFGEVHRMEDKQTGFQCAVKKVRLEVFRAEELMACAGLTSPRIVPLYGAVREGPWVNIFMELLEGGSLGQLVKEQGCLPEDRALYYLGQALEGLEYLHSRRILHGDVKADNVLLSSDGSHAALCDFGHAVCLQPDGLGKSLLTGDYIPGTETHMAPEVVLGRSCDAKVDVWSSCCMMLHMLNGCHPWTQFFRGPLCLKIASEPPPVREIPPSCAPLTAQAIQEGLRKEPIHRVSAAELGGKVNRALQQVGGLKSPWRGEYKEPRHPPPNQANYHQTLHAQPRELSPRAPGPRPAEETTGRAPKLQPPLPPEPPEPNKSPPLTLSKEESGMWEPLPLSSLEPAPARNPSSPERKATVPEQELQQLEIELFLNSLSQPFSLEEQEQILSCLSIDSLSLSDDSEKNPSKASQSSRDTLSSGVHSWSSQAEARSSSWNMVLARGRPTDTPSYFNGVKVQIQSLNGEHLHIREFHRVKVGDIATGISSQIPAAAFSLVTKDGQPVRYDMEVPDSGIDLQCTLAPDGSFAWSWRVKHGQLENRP

Structure (SMILES): CN1CC[C@@](O)(C#Cc2cccc(-n3nc(C(N)=O)c4cccnc43)c2)C1=O [Compound C-1]
- IC50 [1]: > 20000 nM
- IC50 [2]: 79.5 nM

Structure (SMILES): COc1ccn2c(C(N)=O)nc(-c3cccc(C#C[C@]4(O)C(=O)N(C)[C@@H]5C[C@@H]54)c3)c2c1 [1-(3-(((1R,4S,5S)-4-hydroxy-2-methyl-3-oxo-2-azabicyclo[3.1.0]hexan-4-yl)ethynyl)phenyl)-7-methoxyimidazo[1,5-a]pyridine-3-carboxamide]
- NIK enzyme inhibition, potency in words relative to the other stereoisomers [3]: third most potent NIK enzyme inhibitor among the 4 stereoisomers

Structure (SMILES): CN1C(=O)[C@](O)(C#Cc2cccc(-c3nc(C(N)=O)c(N)s3)c2)[C@H]2C[C@H]21 [Compound 6, 5-amino-2-(3-(((1R,4R,5S)-4-hydroxy-2-methyl-3-oxo-2-azabicyclo[3.1.0]hexan-4-yl)ethynyl)phenyl)thiazole-4-carboxamide]
- HLM CL (human liver microsome clearance) [4]: 1.6 mL/min/kg
- stability in human liver microsomes versus the corresponding pyrrolidinone comparator compound [4]: better stability
- Hep CL (human hepatocyte clearance) (Hepatocyte stability): 2.7 mL/min/kg
- Ki [3]: 0.05 nM
- NIK enzyme inhibition, potency in words relative to the other stereoisomers [3]: most potent NIK enzyme inhibitor among the 4 stereoisomers

Structure (SMILES): CN1C(=O)[C@](O)(C#Cc2cccc(-c3nc(C(N)=O)n4ccccc34)c2)[C@@H]2C[C@@H]21 [1-(3-(((1 S,4R,5R)-4-hydroxy-2-methyl-3-oxo-2-azabicyclo[3.1.0]hexan-4-yl)ethynyl)phenyl)imidazo[1,5-a]pyridine-3-carboxamide]
- NIK enzyme inhibition, potency in words relative to the other stereoisomers [3]: second most potent NIK enzyme inhibitor among the 4 stereoisomers

Structure (SMILES): CN1C(=O)[C@@](O)(C#Cc2cccc(-n3nc(C(N)=O)c4cccnc43)c2)[C@H]2C[C@H]21 [1-(3-(((1R,4S,5S)-4-hydroxy-2-methyl-3-oxo-2-azabicyclo[3.1.0]hexan-4-yl)ethynyl)phenyl)-1H-pyrazolo[3,4-b]pyridine-3-carboxamide]
- NIK enzyme inhibition, potency in words relative to the other stereoisomers [3]: no measurable inhibition

Structure (SMILES): COc1ccn2c(C(N)=O)nc(-c3cccc(C#C[C@@]4(O)C(=O)N(C)[C@@H]5C[C@@H]54)c3)c2c1 [Compound 4, 1-(3-(((1R,4R,5S)-4-hydroxy-2-methyl-3-oxo-2-azabicyclo[3.1.0]hexan-4-yl)ethynyl)phenyl)-7-methoxyimidazo[1,5-a]pyridine-3-carboxamide]
- HLM CL (human liver microsome clearance) [4]: 12 mL/min/kg
- stability in human liver microsomes versus the corresponding pyrrolidinone comparator compound [4]: better stability
- Ki [3]: 0.05 nM
- NIK enzyme inhibition, potency in words relative to the other stereoisomers [3]: most potent NIK enzyme inhibitor among the 4 stereoisomers

Structure (SMILES): CN1C(=O)[C@@](O)(C#Cc2cccc(-c3nc(C(N)=O)c4ccccn34)c2)[C@@H]2C[C@@H]21 [3-(3-(((1S,4S,5R)-4-hydroxy-2-methyl-3-oxo-2-azabicyclo[3.1.0]hexan-4-yl)ethynyl)phenyl)imidazo[1,5-a]pyridine-1-carboxamide]
- NIK enzyme inhibition, potency in words relative to the other stereoisomers [3]: third most potent NIK enzyme inhibitor among the 4 stereoisomers

Structure (SMILES): COc1ccn2c(C(N)=O)nc(-c3cccc(C#C[C@]4(O)C(=O)N(C)[C@H]5C[C@H]54)c3)c2c1 [1-(3-(((1S,4S,5R)-4-hydroxy-2-methyl-3-oxo-2-azabicyclo[3.1.0]hexan-4-yl)ethynyl)phenyl)-7-methoxyimidazo[1,5-a]pyridine-3-carboxamide]
- NIK enzyme inhibition, potency in words relative to the other stereoisomers [3]: no measurable inhibition

Structure (SMILES): CN1C(=O)[C@@](O)(C#Cc2cccc(-n3nc(C(N)=O)c4cccnc43)c2)[C@@H]2C[C@@H]21 [1-(3-(((1 S,4S,5R)-4-hydroxy-2-methyl-3-oxo-2-azabicyclo[3.1.0]hexan-4-yl)ethynyl)phenyl)-1H-pyrazolo[3,4-b]pyridine-3-carboxamide]
- NIK enzyme inhibition, potency in words relative to the other stereoisomers [3]: no measurable inhibition

Structure (SMILES): CN1C(=O)[C@@](O)(C#Cc2cccc(-c3nc(C(N)=O)n4ccccc34)c2)[C@H]2C[C@H]21 [1-(3-(((1R,4S,5S)-4-hydroxy-2-methyl-3-oxo-2-azabicyclo[3.1.0]hexan-4-yl)ethynyl)phenyl)imidazo[1,5-a]pyridine-3-carboxamide]
- NIK enzyme inhibition, potency in words relative to the other stereoisomers [3]: third most potent NIK enzyme inhibitor among the 4 stereoisomers

Structure (SMILES): CN1C(=O)[C@](O)(C#Cc2cccc(-c3nc(C(N)=O)c4ccccn34)c2)[C@@H]2C[C@@H]21 [3-(3-(((1 S,4R,5R)-4-hydroxy-2-methyl-3-oxo-2-azabicyclo[3.1.0]hexan-4-yl)ethynyl)phenyl)imidazo[1,5-a]pyridine-1-carboxamide]
- NIK enzyme inhibition, potency in words relative to the other stereoisomers [3]: second most potent NIK enzyme inhibitor among the 4 stereoisomers

Structure (SMILES): CN1C(=O)C(O)(C#Cc2cccc(-c3nc(C(N)=O)c(N)s3)c2)C2CC21 (single isomer, unassigned) [5-amino-2-(3-((4-hydroxy-2-methyl-3-oxo-2-azabicyclo[3.1.0]hexan-4-yl)ethynyl)phenyl)thiazole-4-carboxamide]
- NIK enzyme inhibition, potency in words relative to the other stereoisomers [3]: less potent NIK enzyme inhibitor than Compound 6

Structure (SMILES): CN1C(=O)[C@@](O)(C#Cc2cccc(-c3nc(C(N)=O)n4ccccc34)c2)[C@@H]2C[C@@H]21 [1-(3-(((1 S,4S,5R)-4-hydroxy-2-methyl-3-oxo-2-azabicyclo[3.1.0]hexan-4-yl)ethynyl)phenyl)imidazo[1,5-a]pyridine-3-carboxamide]
- NIK enzyme inhibition, potency in words relative to the other stereoisomers [3]: no measurable inhibition

Structure (SMILES): COc1ccn2c(C(N)=O)nc(-c3cccc(C#C[C@@]4(O)C(=O)N(C)[C@H]5C[C@H]54)c3)c2c1 [1-(3-(((1 S,4R,5R)-4-hydroxy-2-methyl-3-oxo-2-azabicyclo[3.1.0]hexan-4-yl)ethynyl)phenyl)-7-methoxyimidazo[1,5-a]pyridine-3-carboxamide]
- NIK enzyme inhibition, potency in words relative to the other stereoisomers [3]: second most potent NIK enzyme inhibitor among the 4 stereoisomers

Structure (SMILES): CN1CC[C@@](O)(C#Cc2cccc(-c3nc(C(N)=O)c4ccccn34)c2)C1=O [Compound C-5]
- IC50 [1]: > 20000 nM
- IC50 [2]: 240 nM

Structure (SMILES): CN1CC[C@@](O)(C#Cc2cccc(-c3nc(C(N)=O)c(N)s3)c2)C1=O [Compound C-6, reference compound]
- HLM CL (human liver microsome clearance) [4]: 5.1 mL/min/kg
- Hep CL (human hepatocyte clearance) (Hepatocyte stability): 1.1 mL/min/kg
- IC50 [1]: > 5000 nM
- IC50 [2]: 79.1 nM
- Ki [3]: 0.13 nM
